# Measurements reported in US20140314780A1, “Compositions Using Antibodies Directed to GPNMB and Uses Thereof” (Celldex Therapeutics, Inc., priority 2008, published 2014).
# “Also recorded” adds a separate entry of the source.
# Key:
# Format in all cases: cell-based, human
# GPNMB = experiment: Immunoblotting for GPNMB on whole-cell lysates of cancer cell lines after drug exposure; settings: for increase of GPNMB expression in the screen: determined by immunoblotting and/or flow cytometry analysis; for GPNMB expressed after protein synthesis inhibition: 1 hour, absence of ammonium chloride (FIG. 6D)
# Description: Cancer cell lines were of human origin and were obtained from the American Type Culture Collection (Manassas, Va.) and from the National Cancer Institute (Bethesda, Md.) and cultured in RPMI-1640 supplemented with 10% FBS (growth media). Sources of reagents were as follows: RAFKi (553013), MEKi (U0126), MEKi (PD98059), MEKi (444939), ERKi (FR180204), p38 MAPKi (SB202190), p38 MAPKi (SB203580), aurora kinase inhibitor (189404), JNK inhibitor (420119), MMPi (GM6001) were from EMD Chemicals (San Diego, Calif.). ERKi (A6355), RAFKi: (GW5074), ammonium chloride (NH4Cl), chloroquine, monensin, cyclohexamide and emetine were from Sigma (Saint Louis, Mo.). HSP90i (geldanamycin) was from AG Scientific (San Diego, Calif.) and imatinib (Gleevec) was purchased from a pharmacy.
# Cells were seeded in 6-well tissue culture dishes at a subconfluent density and allowed to attach overnight. For harvesting cell lysates, media was removed, cells were briefly washed with serum-free media and then 1× Tris-glycine SDS sample buffer (Invitrogen, Carlsbad, Calif.) supplemented with 10 mM dithiothreitol (Sigma) was added directly to the wells. Cell lysates were then collected and boiled for 10 minutes. For preparing conditioned media, drug treatments were performed in a minimum volume of growth media (1.5 mL/well). Following 48 hours of incubation, conditioned media was collected, briefly microfuged, mixed with an equal volume of 2× Tris-glycine SDS sample buffer (Invitrogen, Carlsbad, Calif.) supplemented with 20 mM dithiothreitol (Sigma) and boiled for 10 minutes. For cell lysates, samples were quantified and an equal quantity of protein/lane was resolved on 4-20% gradient polyacrylamide gels (Invitrogen) and then transferred to nitrocellulose filters (Invitrogen). The volume of conditioned media loaded/lane was adjusted based on the protein concentration determined in the respective cell lysates. Immunoblotting was performed using standard procedures and the following primary antibodies: MARTI (sc-20032), TYRP2 (sc-25544), TYRP1 (sc-25543), PMEL17 (sc-15010), MAGEA1 (sc-20033), MCSP (sc-20162), MTf (sc-26651), MCAM (sc-18942), pp-ERK (sc-7976) and ERK (sc-94) (preceding antibodies were purchased from Santa Cruz Biotechnologies, Santa Cruz, Calif.), GPNMB (AF2550; R & D Systems, Minneapolis Minn.), actin (A5060; Sigma). Following incubation with the appropriate horseradish peroxidase-conjugated secondary antibodies, enhanced chemiluminescence (GE Healthcare, Chalfont St. Giles, United Kingdom) was used for detection.
# phospho-ERK (pp-ERK) = experiment: Immunoblotting for phospho-ERK (level of ERK activation)
# Description: In the experiment presented in FIG. 2A, potential inhibition of the ERK pathway was investigated by immunoblotting for phospho-ERK (pp-ERK), which represents the active form of this signaling molecule.
# [1] = test system: GPNMB surface expression on A375 melanoma cells; experiment: Flow cytometry of GPNMB surface expression, A375 cells; settings: for GPNMB surface expression, flow cytometry GeoMean: A375, CR011 (anti-GPNMB) primary antibody
# Protocol: (§1) Cells were seeded in 6-well tissue culture dishes at a subconfluent density and allowed to attach overnight. The following day, cells were treated as indicated in the figures/legends, harvested with versene (Invitrogen), washed with PBS and incubated with primary antibody (10 μg/mL) diluted in staining buffer (PBS pH 7.4, 4% FBS, 0.1% sodium azide) for 30 minutes on ice. […] After incubation with primary antibody, samples were washed with staining buffer and then incubated with secondary antibody (PE-conjugated anti-human antibody; 1:100) for 30 minutes on ice. After incubation, samples were washed with staining buffer and examined on a Becton Dickinson FACSCalibur flow cytometer (BD Immunocytometry Systems, San Jose, Calif.). Data analysis was performed with Becton Dickinson Cell Quest software and the geometric mean fluorescence intensity (GeoMean) was determined for each sample.
# (§2) For the data shown in Table 37, flow cytometry was performed on intact, non-permeabilized cells using the indicated primary monoclonal antibodies. […] The results are reported as GeoMeans. […] For the data shown in the bottom left panel of Table 37, SKMEL2 (melanoma) cells were treated with MEKi (U0126; 10 uM), imatinib (20 uM), p38i (p38 MAPKi SB202190; 50 uM), NH4Cl (ammonium chloride; 20 mM) or CLQ (chloroquine; 20 uM) for 48 hours prior to analysis. For the data shown in the bottom right panel of Table 37, WM2664 (melanoma) cells were treated with MON (monensin) or MMPi (GM6001) for 48 hours prior to analysis.
# [2] = test system: GPNMB surface expression on SF539 glioblastoma cells; experiment: Flow cytometry of GPNMB surface expression, SF539 cells; settings: SF549, CR011 (anti-GPNMB) primary antibody
# Protocol: as §1, §2
# [3] = test system: GPNMB surface expression on SKMEL2 melanoma cells; experiment: Flow cytometry of GPNMB surface expression, SKMEL2 cells; settings: for GPNMB surface expression, flow cytometry GeoMean: SKMEL2, CR011 (anti-GPNMB) primary antibody, MEKi (U0126) 10 uM, imatinib 20 uM, p38i (SB202190) 50 uM; for GPNMB surface-expression: SKMEL2 cells, 48 hours (Table 37, bottom left)
# Protocol: as §1
# For the data shown in Table 37, flow cytometry was performed on intact, non-permeabilized cells using the indicated primary monoclonal antibodies. […] The results are reported as GeoMeans. For the data shown in the top panel of Table 37, A375 (melanoma) or SF539 (glioblastoma) cells were treated with the indicated concentrations of MEKi (U0126), RAFKi (553013) or ERKi (FR180204) for 12, 24 or 48 hours prior to analysis. For the data shown in the bottom left panel of Table 37, SKMEL2 (melanoma) cells were treated with MEKi (U0126; 10 uM), imatinib (20 uM), p38i (p38 MAPKi SB202190; 50 uM), NH4Cl (ammonium chloride; 20 mM) or CLQ (chloroquine; 20 uM) for 48 hours prior to analysis. For the data shown in the bottom right panel of Table 37, WM2664 (melanoma) cells were treated with MON (monensin) or MMPi (GM6001) for 48 hours prior to analysis.
# UACC62 melanoma cells = experiment: In vitro growth-inhibition/cytotoxicity assay, UACC62 cells; settings: 0.16 μg/mL, 72 hours, trypan blue
# [4] = melanoma lines SKMEL2, A375, WM2664, MEWO, 48 hours (FIG. 6A)
compound,measurement,setting,value
Cc1ccc2nc(NCCN)c3ncc(C)n3c2c1 [BMS345541],increase of GPNMB expression in the screen,GPNMB,ineffective
"Nc1n[nH]c2nnc(-c3c(-c4ccccc4)nn4ccccc34)cc12 [FR180204, 5-(2-phenylpyrazolo[1,5-a]pyridin-3-yl)-1H-pyrazolo[3,4-c]pyridazin-3-amine]",GPNMB induction (immunoblotting),"GPNMB; A375 cells, only following an exposure time of 48 hours (FIG. 3B, bottom)",strong induction
same,GPNMB induction (immunoblotting),"GPNMB; SKMEL2 or SF539 cells (FIG. 3B, bottom)",Little or no GPNMB induction
same,inhibition of the ERK pathway (phospho-ERK levels),"phospho-ERK (pp-ERK); FIG. 3B bottom, A375, SKMEL2, SF539",relatively weak inhibition
same,"GPNMB surface expression, flow cytometry GeoMean","[1]; ERKi (FR180204) 3.1 uM, 12 h",13.0
same,"GPNMB surface expression, flow cytometry GeoMean","[1]; ERKi (FR180204) 3.1 uM, 24 h",13.5
same,"GPNMB surface expression, flow cytometry GeoMean","[1]; ERKi (FR180204) 3.1 uM, 48 h",13.1
same,"GPNMB surface expression, flow cytometry GeoMean","[1]; ERKi (FR180204) 50 um, 12 h",13.0
same,"GPNMB surface expression, flow cytometry GeoMean","[1]; ERKi (FR180204) 50 um, 24 h",14.9
same,"GPNMB surface expression, flow cytometry GeoMean","[1]; ERKi (FR180204) 50 um, 48 h",50.3
same,GPNMB surface expression,"[1]; A375 melanoma, 12, 24 or 48 hours (Table 37, top)",induced GPNMB surface expression
same,"GPNMB surface expression, flow cytometry GeoMean","[2]; ERKi (FR180204) 3.1 uM, 12 h",32.6
same,"GPNMB surface expression, flow cytometry GeoMean","[2]; ERKi (FR180204) 3.1 uM, 24 h",33.7
same,"GPNMB surface expression, flow cytometry GeoMean","[2]; ERKi (FR180204) 3.1 uM, 48 h",32.6
same,"GPNMB surface expression, flow cytometry GeoMean","[2]; ERKi (FR180204) 50 um, 12 h",31.3
same,"GPNMB surface expression, flow cytometry GeoMean","[2]; ERKi (FR180204) 50 um, 24 h",30.7
same,"GPNMB surface expression, flow cytometry GeoMean","[2]; ERKi (FR180204) 50 um, 48 h",30.6
O=c1cc(N2CCOCC2)oc2c(-c3ccccc3)cccc12 [LY94002],increase of GPNMB expression in the screen,GPNMB,ineffective
Nc1ncn([C@@H]2O[C@H](CO)[C@@H](O)[C@H]2O)c(=O)n1 [Mab 5-AZA],increase of GPNMB expression in the screen,GPNMB,ineffective
"Oc1ccc(-c2nc(-c3ccc(F)cc3)c(-c3ccncc3)[nH]2)cc1 [SB202190, 4-[4-(4-Fluorophenyl)-5-(4-pyridinyl)-1H-imidazol-2-yl]phenol]","GPNMB surface expression, flow cytometry GeoMean",[3],85.1
Cl.N [ammonium chloride],GPNMB induction compared with MTf and MCAM,"GPNMB; NH4Cl 20 mM, 48 hours (FIG. 6E)",more highly induced
same,GPNMB detection with protein synthesis inhibitor,"GPNMB; ammonium chloride (50 mM) along with protein synthesis inhibitor, 1 hour (FIG. 6D)",readily detectable
same,GPNMB expression (immunoblotting),GPNMB; [4],induced
same,"GPNMB surface expression, flow cytometry GeoMean",[3],93.8
same,GPNMB surface-expression,[3],increase GPNMB surface-expression
O=C(/C=C/c1cccc(S(=O)(=O)Nc2ccccc2)c1)NO [belinostat],increase of GPNMB expression in the screen,GPNMB,ineffective
CC(C)C[C@H](NC(=O)[C@H](Cc1ccccc1)NC(=O)c1cnccn1)B(O)O [bortezomib],increase of GPNMB expression in the screen,GPNMB,ineffective
O=NN(CCCl)C(=O)NCCCl [carmustine],increase of GPNMB expression in the screen,GPNMB,ineffective
CCN(CC)CCCC(C)Nc1ccnc2cc(Cl)ccc12 (centres unmarked) [chloroquine],GPNMB expression (immunoblotting),GPNMB; [4],induced
same,"GPNMB surface expression, flow cytometry GeoMean",[3],91.2
same,GPNMB surface-expression,[3],increase GPNMB surface-expression
N.N.[Cl][Pt][Cl] [cisplatin],increase of GPNMB expression in the screen,GPNMB,ineffective
C[C@@H]1C[C@@H]([C@H](O)CC2CC(=O)NC(=O)C2)C(=O)[C@@H](C)C1 [cyclohexamide],GPNMB expressed after protein synthesis inhibition,GPNMB,little or no GPNMB
CC[C@H]1CN2CCc3cc(OC)c(OC)cc3[C@@H]2C[C@@H]1C[C@H]1NCCc2cc(OC)c(OC)cc21 [emetine],GPNMB expressed after protein synthesis inhibition,GPNMB,little or no GPNMB
Cc1ccc(NC(=O)c2ccc(CN3CCN(C)CC3)cc2)cc1Nc1nccc(-c2cccnc2)n1 [imatinib],GPNMB expression (immunoblotting),GPNMB; [4],induced
same,GPNMB expression (immunoblotting),"GPNMB; variety of melanoma and glioblastoma cell lines, 48 hours (FIG. 6B, 6C)",strongly induced; also recorded: robust GPNMB expression
same,phospho-ERK,"phospho-ERK (pp-ERK); melanoma and glioblastoma cell lines, imatinib 20 μM, 48 hours (FIG. 6B)",without inhibiting phospho-ERK
same,"GPNMB surface expression, flow cytometry GeoMean",[3],103.7
same,GPNMB surface-expression,[3],increase GPNMB surface-expression
CC(=O)O[C@H]1C(=O)[C@@]2(C)[C@H]([C@H](OC(=O)c3ccccc3)[C@]3(O)C[C@H](OC(=O)[C@H](O)[C@@H](NC(=O)c4ccccc4)c4ccccc4)C(C)=C1C3(C)C)[C@]1(OC(C)=O)CO[C@@H]1C[C@@H]2O [paclitaxel],increase of GPNMB expression in the screen,GPNMB,ineffective
CR011-vcMMAE: antibody-drug conjugate of anti-GPNMB antibody CR011 with Auristatin E (vcMMAE) through a protease-cleavable linker,growth-inhibition,UACC62 melanoma cells; UACC62 cells not pretreated with the MEK inhibitor,little growth-inhibition
same,growth-inhibition,"UACC62 melanoma cells; UACC62 cells pretreated with the MEK inhibitor (U0126 1 μM, 48 hours)",strong growth-inhibition
IFNα,increase of GPNMB expression in the screen,GPNMB,ineffective
"IFNγ: IFNγ, compound examined in the screen",increase of GPNMB expression in the screen,GPNMB,ineffective
